For one compound, inhibition and IC50 results are on record in ChEMBL document CHEMBL5316324, “Discovery, Characterization, and Engineering of LvIC, an α4/4-Conotoxin That Selectively Blocks Rat α6/α3β4 Nicotinic Acetylcholine Receptors” (J Med Chem, 2023).

Peptide text beside a SMILES is read from it. Some results are limits rather than exact numbers.

As a reminder, the inhibition is the relative decrease from the control value, in per cent. The term IC50 denotes the point on the concentration scale where inhibition reaches its midpoint.

The target of assay [1] is Neuronal acetylcholine receptor; alpha3/beta2 (Rattus norvegicus) (UniProt P04757+P12390). Description: Inhibition of rat alpha3/beta2 nAChR expressed in Stage V-VI Xenopus laevis Oocytes assessed as inhibition of acetylcholine-induced current at 10 uM in presence of acetylcholine by electrophysiological recording relative to control. The class given is cell-based. As to conditions: Oocyte.

For assay [2], the target named is Neuronal acetylcholine receptor; alpha4/beta4 (Rattus norvegicus, UniProt P09483+P12392). The assay is described as follows: Inhibition of rat alpha4/beta4 nAChR expressed in Stage V-VI Xenopus laevis Oocytes assessed as inhibition of acetylcholine-induced current in presence of acetylcholine by electrophysiological recording. The assay is classed as cell-based, Oocyte.

Assay [3] deals with Neuronal acetylcholine receptor; alpha3/beta4 (Rattus norvegicus) (UniProt P04757+P12392). Description: Inhibition of rat alpha3/beta4 nAChR expressed in Stage V-VI Xenopus laevis Oocytes assessed as inhibition of acetylcholine-induced current at 10 uM in presence of acetylcholine by electrophysiological recording relative to control. The assay is classed as cell-based. As to conditions: Oocyte.

Neuronal acetylcholine receptor; alpha4/beta4, sequence (P09483 whole entry): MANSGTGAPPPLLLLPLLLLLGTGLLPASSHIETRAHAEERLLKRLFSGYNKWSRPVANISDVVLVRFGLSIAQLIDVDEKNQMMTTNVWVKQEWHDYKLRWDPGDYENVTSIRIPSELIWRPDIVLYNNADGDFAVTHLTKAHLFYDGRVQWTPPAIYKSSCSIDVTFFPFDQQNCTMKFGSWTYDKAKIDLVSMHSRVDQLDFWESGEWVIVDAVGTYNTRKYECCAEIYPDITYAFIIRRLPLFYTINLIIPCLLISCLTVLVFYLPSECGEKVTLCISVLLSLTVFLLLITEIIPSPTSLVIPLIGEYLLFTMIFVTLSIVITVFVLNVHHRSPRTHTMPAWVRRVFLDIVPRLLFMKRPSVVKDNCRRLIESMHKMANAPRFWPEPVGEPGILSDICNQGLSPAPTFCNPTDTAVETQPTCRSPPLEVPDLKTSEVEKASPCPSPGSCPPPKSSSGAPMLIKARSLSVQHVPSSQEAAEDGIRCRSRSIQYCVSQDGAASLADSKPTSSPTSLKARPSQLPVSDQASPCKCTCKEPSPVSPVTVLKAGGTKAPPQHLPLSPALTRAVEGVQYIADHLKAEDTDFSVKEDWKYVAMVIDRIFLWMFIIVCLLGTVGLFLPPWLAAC
Neuronal acetylcholine receptor; alpha4/beta4, sequence (P12392 whole entry): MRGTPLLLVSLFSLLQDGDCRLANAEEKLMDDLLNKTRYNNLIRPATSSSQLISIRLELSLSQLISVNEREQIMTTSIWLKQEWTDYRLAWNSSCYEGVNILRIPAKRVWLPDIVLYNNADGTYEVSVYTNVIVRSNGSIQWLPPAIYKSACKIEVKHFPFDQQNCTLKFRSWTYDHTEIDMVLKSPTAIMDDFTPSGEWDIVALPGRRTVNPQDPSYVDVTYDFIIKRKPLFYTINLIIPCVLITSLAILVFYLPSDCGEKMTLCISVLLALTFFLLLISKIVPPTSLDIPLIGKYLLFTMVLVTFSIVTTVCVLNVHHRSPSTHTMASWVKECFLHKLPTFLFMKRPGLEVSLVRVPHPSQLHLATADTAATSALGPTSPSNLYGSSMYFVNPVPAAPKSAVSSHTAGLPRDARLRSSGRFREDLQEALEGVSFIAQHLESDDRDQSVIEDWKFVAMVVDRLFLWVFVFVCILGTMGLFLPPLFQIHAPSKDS

For `CC(C)[C@H](NC(=O)[C@@H]1CCCN1C(=O)[C@H](CC(N)=O)NC(=O)[C@H](C)NC(=O)[C@H](CS)NC(=O)[C@H](CS)NC(=O)[C@@H](N)CCCNC(=N)N)C(=O)N[C@@H](CS)C(=O)N[C@@H](CC(N)=O)C(=O)NCC(=O)N[C@@H](CCCCN)C(=O)N[C@@H](Cc1cnc[nH]1)C(=O)N[C@@H](CS)C(N)=O` (H-RCCANPVCNGKHC-NH2), the inhibition in assay [1] and in assay [3] was below 50% in each case. The IC50 in assay [2] is above 10 µM.
